Non-standard residues stand in square brackets, D forms with d. Residues, ends and D or L forms follow the SMILES beside them.
Assays:
[1] = tested on: IL-1α-induced IL-8 production by Caco2 cells; assay: IL-1α induced IL-8 production by Caco2 colonic adenocarcinoma cells; assay type: cell-based, human; details: peptide 100 ng/ml, FIG. 2
Method: Human colon epithelial cell lines HT-29 and Caco2 obtained from the European Collection of Animal Cell Cultures (ECACC) were used in cell cultures. Cells were routinely cultured at 37° C. in an atmosphere of 5% CO2 in 80 cm^2 tissue culture flasks in McCoy's and DMEM medium, respectively, supplemented with penicillin (10 u/ml), streptomycin (10 μg/ml), fungizone (0.5 μg/ml), and 10% (v/v) FCS (referred to as complete medium) until confluent.
Confluent monolayers were sub-cultured into 6-well plates for experimental protocols. Cells were grown in 6-well plates until confluent. Twenty-four hours prior to the experiment the confluent monolayers were washed and cultured in FCS-free McCoy's medium. Growth arrested cultures were then treated with fresh FCS-free medium and stimulated with vehicle controls or various doses of IL-1α added alone or in combination with other pro-inflammatory cytokines (TNF-α, IFN-γ) in the presence or absence of the peptide of sequence 4 or IL-1 ra, in a dose and time dependent manner.
Supernatants were collected, centrifuged to remove cellular debris and stored at −70° C. until assayed for extracellular inflammatory mediators. […] Production of soluble mediators was assessed by commercially available ELISA in supernatants, RT-PCR in total RNA extractants and nitric oxide, as described in Kolios, G, et al. (1995). […]

[2] = tested on: thoroughbred having equine laminitis; assay: Effect of peptides on equine laminitis (Obel Lameness Grades); assay type: in vivo, horse
Method: Each of the peptides having the sequences 13, 14, 19 and 4 were also tested to determine their effect on equine laminitis. Each peptide was administered intravenously to a thoroughbred having equine laminitis. The peptides were prepared as compositions containing 1 mg of peptide dissolved in 5 ml of a solution comprising water, bicarbonate and either benzyl alcohol or methanol. The effect of the peptides on equine laminitis was judged by the Obel Lameness Grades, which is a system of rating degrees of lameness resulting from laminitis. […] Obel Grade III horses do resist having a foreleg lifted, and are reluctant to walk. Obel Grade IV horses will walk only if forced. The Obel Score for each of the horses was measured before administration of the peptide and 24 hours after injection of the peptide. […] The effect in reducing laminitis which was caused by one single injection of the peptides on laminitis was short-lived. Therefore, the duration of the effect of the peptides in reducing laminitis was further assessed by attending veterinarians.

[3] = tested on: cancer patients with cachexia; assay: Treatment of cachexia in cancer patients (case reports); assay type: in vivo, human
Method: Patients are typically diagnosed as having cachexia where weight loss of at least 5% in 12 months or less (or BMI<20 kg/m^2), is accompanied by at least three of the following conditions: • Decreased muscle strength • Fatigue • Low fat-free mass index; and • Abnormal blood biochemistry: increased inflammatory markers (CRP, IL-6), anaemia (Hb<12 g/dL) and low serum albumin (<3.2 g/dL)
The peptide was administered by subcutaneous injection every second day for two weeks, in a composition containing the peptide dissolved in 5 ml of a solution comprising water, bicarbonate and either benzyl alcohol or methanol.
The peptide was administered by subcutaneous injection every second day for one month, in a composition containing the peptide dissolved in 5 ml of a solution comprising water, bicarbonate and either benzyl alcohol or methanol
The peptide was administered by subcutaneous injection every second day, in a composition containing the peptide dissolved in 5 ml of a solution comprising water, bicarbonate and either benzyl alcohol or methanol.
The peptide was administered by subcutaneous injection every second day for two months, in a composition containing the peptide dissolved in 5 ml of a solution comprising water, bicarbonate and either benzyl alcohol or methanol.
The peptide was administered by subcutaneous injection every second day for one week, in a composition containing the peptide dissolved in 5 ml of a solution comprising water, bicarbonate and either benzyl alcohol or methanol.
The peptide was administered by subcutaneous injection every second day for one month, in a composition containing the peptide dissolved in 5 ml of a solution comprising water, bicarbonate and either benzyl alcohol or methanol.
The peptide was administered by subcutaneous injection every second day for one month in a composition containing the peptide dissolved in 5 ml of a solution comprising water, bicarbonate and either benzyl alcohol or methanol.

[4] = tested on: IL-1 stimulation of IL-8 in human skin fibroblasts; assay: Inhibition of IL-1 induced IL-8 in human fibroblasts; assay type: cell-based; details: inhibition of IL-1 stimulation of IL-8 in human skin fibroblasts; average of three measurements and standard error; read-out: Binding (IC50 nM)
[5] = Example 16: breast cancer, 1 mg subcutaneous every second day for one month

CC(=O)N[C@H](CC(C)C)C(=O)N1CCC[C@@H]1C(=O)N[C@H](CC(C)C)C(=O)N[C@H](C)C(=O)N[C@H](Cc1ccc(O)cc1)C(=O)N1CCC[C@@H]1C(=O)N[C@H](CCC(N)=O)C(=O)N[C@H](Cc1c[nH]c2ccccc12)C(=O)N[C@H](Cc1ccc(O)cc1)C(=O)NCC(=O)N1CCC[C@@H]1C(=O)N[C@@H](C(=O)N[C@H](Cc1c[nH]c2ccccc12)C(=O)N[C@H](CCC(=O)O)C(=O)N[C@H](Cc1ccccc1)C(=O)O)[C@H](C)O [SEQ ID NO. 4, Ac-LPLAYPQWYGPTWEF] (Ac-[dL][dP][dL][dA][dY][dP][dQ][dW][dY]G[dP][dT][dW][dE][dF]-OH; C-terminus assumed)
Effect on IL-1α-induced IL-8 secretion [1]: significant decrease
Change in Obel Score ([2]; 1 mg intravenously, before vs 24 hours after injection, most negative = greatest improvement): −2.9
Duration (days) of effect on laminitis ([2]; single 1 mg intravenous, averaged, report by veterinarians): 4 days
Side effects due to the administration of the peptide ([3]; Example 9: breast cancer, 1 mg subcutaneous every second day for two weeks): No side effects were noted
Symptoms of cachexia ([3]; Example 9: breast cancer, 1 mg subcutaneous every second day for two weeks, after 24 hours): cachexia symptoms were alleviated
Symptoms of cachexia ([3]; Example 10: adrenal adenomas, 1 mg subcutaneous every second day for one month): symptoms of cachexia were alleviated
Symptoms of cachexia ([3]; Example 11: glioblastoma, 1 mg subcutaneous every second day): symptoms of cachexia were alleviated
Symptoms of cachexia ([3]; Example 12: brain adenoma, 1 mg subcutaneous every second day for two months, two days after commencement): symptoms of cachexia were alleviated
Symptoms of cachexia ([3]; Example 13: brain glioma, 1 mg subcutaneous every second day for one week): symptoms of cachexia were alleviated
Symptoms of cachexia ([3]; Example 14: ovarian cancer, 1 mg subcutaneous every second day for one month): symptoms of cachexia were also alleviated
Symptoms of cachexia ([3]; Example 15: bone cancer, 1 mg subcutaneous every second day for one month): symptoms of cachexia were alleviated
Symptoms of cachexia [3, 5]: symptoms of cachexia were also alleviated
Weight put on [3, 5]: 5 kg
Symptoms of cachexia ([3]; Example 17: breast cancer, 1 mg subcutaneous every second day for two weeks): symptoms of cachexia were alleviated
Symptoms of cachexia ([3]; Example 18: bladder cancer, 1 mg subcutaneous every second day for one month, after 24 from commencement): symptoms of cachexia were alleviated
Symptoms of cachexia ([3]; Example 19: colon cancer, 1 mg subcutaneous every second day for one month): symptoms of cachexia were largely alleviated
Symptoms of cachexia ([3]; Example 20: colon cancer, 1 mg subcutaneous every second day for one month, one month after commencement): symptoms of cachexia had been treated
Symptoms of cachexia ([3]; Example 21: glioblastoma, 1 mg subcutaneous every second day for one month, two days after commencement): cachexia started to diminish
Symptoms of cachexia ([3]; Example 22: glioblastoma, 1 mg subcutaneous every second day, after 24 hours): symptoms of cachexia had been alleviated
Symptoms of cachexia ([3]; Example 23: Hodgkin's lymphoma, 1 mg subcutaneous every second day for one month, after three weeks): symptoms of cachexia were alleviated
Weight gained ([3]; Example 24: colon cancer, 1 mg subcutaneous every second day): ~5 kg
Symptoms of cachexia ([3]; Example 24: colon cancer, 1 mg subcutaneous every second day, after two weeks): symptoms of cachexia were alleviated
Symptoms of cachexia ([3]; Example 25: non-Hodgkin's lymphoma, 1 mg subcutaneous every second day, after 4 days): symptoms of cachexia were alleviated
Symptoms of cachexia ([3]; Example 26: pancreatic cancer, 1 mg subcutaneous every second day, after 7 days): symptoms of cachexia were alleviated
Symptoms of cachexia ([3]; Example 27: liposarcoma, 1 mg subcutaneous every second day, after 3 days): symptoms of cachexia were alleviated
Symptoms of cachexia ([3]; Example 28: liver cancer, 1 mg subcutaneous every second day, after one week): symptoms of cachexia were largely alleviated
IC50 [4]: 5.9 nM
